{"source": "the NIST ThermoML archive (doi:10.1016/j.jct.2010.04.001)", "details": "Crystal, Calculated from knudsen effusion weight loss", "note": "Several values for one entry are separate records, joined by “and”; a condition that tells them apart may be missing. Equal values may be shown once. ± gives the expanded uncertainty stated by the source.", "data": [{"smiles": "O=C(c1ccc[nH]1)C(Cl)(Cl)Cl", "note": "[2-trichloroacetyl-1H-pyrrole]", "values": [{"measurement": "vapor or sublimation pressure", "setting": "295.12 K", "result": "0.000103 ± 5e-06 kPa and 9.92e-05 ± 5e-06 kPa and 0.000101 ± 5e-06 kPa"}, {"measurement": "vapor or sublimation pressure", "setting": "297.17 K", "result": "0.000132 ± 7e-06 kPa and 0.000129 ± 6e-06 kPa"}, {"measurement": "vapor or sublimation pressure", "setting": "299.22 K", "result": "0.000169 ± 8e-06 kPa and 0.000165 ± 8e-06 kPa and 0.000162 ± 8e-06 kPa"}, {"measurement": "vapor or sublimation pressure", "setting": "301.14 K", "result": "0.000213 ± 1.1e-05 kPa and 0.000218 ± 1.1e-05 kPa"}, {"measurement": "vapor or sublimation pressure", "setting": "303.23 K", "result": "0.000274 ± 1.4e-05 kPa and 0.000272 ± 1.4e-05 kPa and 0.000268 ± 1.3e-05 kPa"}, {"measurement": "vapor or sublimation pressure", "setting": "305.2 K", "result": "0.000344 ± 1.7e-05 kPa and 0.000336 ± 1.7e-05 kPa and 0.000335 ± 1.7e-05 kPa"}, {"measurement": "vapor or sublimation pressure", "setting": "307.1 K", "result": "0.000434 ± 2.2e-05 kPa and 0.00043 ± 2.2e-05 kPa and 0.000424 ± 2.1e-05 kPa"}, {"measurement": "vapor or sublimation pressure", "setting": "309.13 K", "result": "0.000539 ± 2.7e-05 kPa and 0.000531 ± 2.7e-05 kPa and 0.000527 ± 2.6e-05 kPa"}, {"measurement": "vapor or sublimation pressure", "setting": "311.21 K", "result": "0.000674 ± 3.4e-05 kPa and 0.000661 ± 3.3e-05 kPa and 0.000652 ± 3.3e-05 kPa"}, {"measurement": "vapor or sublimation pressure", "setting": "313.11 K", "result": "0.000861 ± 4.3e-05 kPa and 0.000843 ± 4.2e-05 kPa and 0.000837 ± 4.2e-05 kPa"}, {"measurement": "vapor or sublimation pressure", "setting": "315.16 K", "result": "0.00106 ± 0.00011 kPa and 0.001043 ± 0.00011 kPa and 0.001028 ± 0.0001 kPa"}, {"measurement": "vapor or sublimation pressure", "setting": "317.2 K", "result": "0.001327 ± 0.00014 kPa and 0.001289 ± 0.00014 kPa and 0.00127 ± 0.00013 kPa"}]}, {"smiles": "O=C(c1ccc[nH]1)C(F)(F)F", "note": "[2-trifluoroacetylpyrrole]", "values": [{"measurement": "vapor or sublimation pressure", "setting": "263.19 K", "result": "0.000433 ± 2.2e-05 kPa and 0.000414 ± 2.1e-05 kPa and 0.000406 ± 2e-05 kPa"}, {"measurement": "vapor or sublimation pressure", "setting": "264.14 K", "result": "0.00048 ± 2.4e-05 kPa and 0.000469 ± 2.3e-05 kPa"}, {"measurement": "vapor or sublimation pressure", "setting": "265.11 K", "result": "0.000533 ± 2.7e-05 kPa and 0.000531 ± 2.7e-05 kPa"}, {"measurement": "vapor or sublimation pressure", "setting": "266.12 K", "result": "0.000597 ± 3e-05 kPa and 0.00064 ± 3.2e-05 kPa and 0.000623 ± 3.1e-05 kPa"}, {"measurement": "vapor or sublimation pressure", "setting": "267.12 K", "result": "0.000716 ± 3.6e-05 kPa and 0.00069 ± 3.5e-05 kPa and 0.00067 ± 3.4e-05 kPa"}, {"measurement": "vapor or sublimation pressure", "setting": "268.12 K", "result": "0.000809 ± 4.1e-05 kPa and 0.000796 ± 4e-05 kPa and 0.000771 ± 3.9e-05 kPa"}, {"measurement": "vapor or sublimation pressure", "setting": "269.11 K", "result": "0.0009 ± 4.5e-05 kPa and 0.000894 ± 4.5e-05 kPa and 0.000866 ± 4.3e-05 kPa"}, {"measurement": "vapor or sublimation pressure", "setting": "270.11 K", "result": "0.001022 ± 0.0001 kPa and 0.000993 ± 5e-05 kPa"}, {"measurement": "vapor or sublimation pressure", "setting": "271.13 K", "result": "0.001147 ± 0.00012 kPa and 0.00113 ± 0.00012 kPa and 0.001101 ± 0.00011 kPa"}]}]}
